# Laboratory results reported in ChEMBL document CHEMBL1201862, “PubChem BioAssay data set” (2004).
#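 Grown in 96-well plates, cells were treated for 48 hours with each compound at five concentrations. Insufficient inhibition: endpoint recorded as highest concentration tested. At the GI50, growth is halved.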 The source made the active and inactive calls. Cut-off read from the data, not from the text of the source: active = GI50 up to about 1.1 µM and inactive = higher.
# Columns and labels:
# Assay in all cases: NCI-60 cell line screen, 48 h
# [1] = system: TK-10
# [2] = system: MOLT-4
# [3] = system: SF-295
# [4] = system: SN12C
# [5] = system: MCF7
# [6] = system: T47D
# [7] = system: UO-31
# [8] = system: OVCAR-8
# [9] = system: OVCAR-4
# [10] = system: SNB-75
# [11] = system: NCI-H460
# [12] = system: ACHN
# [13] = system: Hs-578T
# [14] = system: HCT-15
# [15] = system: OVCAR-5
# [16] = system: COLO 205
# [17] = system: SK-OV-3
# [18] = system: UACC-257
# [19] = system: SR
# [20] = system: RPMI-8226
# [21] = system: HT-29
# [22] = system: NCI-H23
# [23] = system: SK-MEL-2
# [24] = system: MDA-MB-231
# [25] = system: NCI/ADR-RES
# [26] = system: SNB-19
# [27] = system: KM12
# [28] = system: 786-0
# [29] = system: HCC 2998
# [30] = system: MDA-N
# [31] = system: HCT-116
# [32] = system: SW-620
# [33] = system: NCI-H522
# [34] = system: A549
# [35] = system: BT-549
# [36] = system: EKVX
# [37] = system: DU-145
# [38] = system: CAKI-1
# [39] = system: M14
# [40] = system: SK-MEL-5
# [41] = system: SF-539
# [42] = system: HOP-62
# [43] = system: RXF 393
# [44] = system: HOP-92
# [45] = system: MDA-MB-435
# [46] = system: K562
# [47] = system: CCRF-CEM
# [48] = system: PC-3
# [49] = system: Malme-3M
# [50] = system: NCI-H226
# [51] = system: UACC-62
# [52] = system: SK-MEL-28
# [53] = system: SF-268
# [54] = system: U-251
# [55] = system: LOX IMVI
# [56] = system: IGROV-1
# [57] = system: HL-60
# [58] = system: OVCAR-3
compound,measurement,setting,value
N=C1/C(=C/c2ccccc2)C(=O)N=C2SC=NN12,GI50,[1],> 100 µM (inactive)
same,GI50,[2],> 100 µM (inactive)
same,GI50,[3],> 100 µM (inactive)
same,GI50,[4],> 100 µM (inactive)
same,GI50,[5],> 100 µM (inactive)
same,GI50,[6],> 100 µM (inactive)
same,GI50,[7],> 100 µM (inactive)
same,GI50,[8],> 100 µM (inactive)
same,GI50,[9],> 100 µM (inactive)
same,GI50,[10],> 100 µM (inactive)
same,GI50,[11],> 100 µM (inactive)
same,GI50,[12],> 100 µM (inactive)
same,GI50,[13],> 100 µM (inactive)
same,GI50,[14],> 100 µM
same,GI50,[15],> 100 µM (inactive)
same,GI50,[16],> 100 µM (inactive)
same,GI50,[17],> 100 µM (inactive)
same,GI50,[18],> 100 µM (inactive)
same,GI50,[19],> 100 µM (inactive)
same,GI50,[20],> 100 µM (inactive)
same,GI50,[21],> 100 µM (inactive)
same,GI50,[22],> 100 µM (inactive)
same,GI50,[23],> 100 µM (inactive)
same,GI50,[24],> 100 µM (inactive)
same,GI50,[25],> 100 µM (inactive)
same,GI50,[26],> 100 µM (inactive)
same,GI50,[27],> 100 µM (inactive)
same,GI50,[28],> 100 µM (inactive)
same,GI50,[29],> 100 µM (inactive)
same,GI50,[30],> 100 µM (inactive)
same,GI50,[31],> 100 µM (inactive)
same,GI50,[32],> 100 µM (inactive)
same,GI50,[33],> 100 µM (inactive)
same,GI50,[34],> 100 µM (inactive)
same,GI50,[35],> 100 µM (inactive)
same,GI50,[36],> 100 µM (inactive)
same,GI50,[37],> 100 µM (inactive)
same,GI50,[38],> 100 µM (inactive)
same,GI50,[39],> 100 µM (inactive)
same,GI50,[40],> 100 µM (inactive)
same,GI50,[41],29.7 µM (inactive)
same,GI50,[42],> 100 µM (inactive)
same,GI50,[43],> 100 µM (inactive)
same,GI50,[44],> 100 µM (inactive)
same,GI50,[45],> 100 µM (inactive)
same,GI50,[46],> 100 µM (inactive)
same,GI50,[47],> 100 µM (inactive)
same,GI50,[48],> 100 µM (inactive)
same,GI50,[49],> 100 µM (inactive)
same,GI50,[50],> 100 µM (inactive)
same,GI50,[51],> 100 µM (inactive)
same,GI50,[52],> 100 µM (inactive)
same,GI50,[53],> 100 µM (inactive)
same,GI50,[54],> 100 µM (inactive)
same,GI50,[55],> 100 µM (inactive)
same,GI50,[56],> 100 µM (inactive)
same,GI50,[57],> 100 µM (inactive)
same,GI50,[58],> 100 µM (inactive)
